# Reference: paper PMC8161485 (ACS Central Science, 2021)
# Entries after “also recorded” stand apart in the source; their conditions may differ.
# Test system: heme oxygenase 1 (HO-1)
# Experiment: Induction of heme oxygenase 1 in primary AML specimens
# Assay type: cell-based, human
# Details: compared to vehicle-only control
smiles,measurement,value
"C=C1C(=O)O[C@H]2[C@H]1CC/C(C)=C/CC[C@@]1(C)O[C@@H]21 [PTL, parthenolide]",induction of heme oxygenase 1 (HO-1),Dose-dependent induction; also recorded: comparatively larger induction of HO-1 at lower doses
